In patent EP1328811B1, “HCV MOSAIC ANTIGEN COMPOSITION” (MedMira Inc., priority 2000, dated 2005):

Test system: anti-HCV antibodies
Assay: Immunofiltration dotting assay of individual peptide-carrier conjugates (epitope mapping, Example 4)
Type: binding, human
Conditions: for reactivity with HCV positive samples / reactivity with positive HCV samples: HCV positive specimens n=10; for reactivity with positive HCV samples: peptide conjugates, independently of the carrier used (BSA, HSA, KLH), peptide-carrier mass ratio 0.5; for reactivity with negative HCV samples: peptide-carrier conjugates, HCV negative specimens n=10
Source text: Several versions of antibody capture assay formats are available which differ mainly according to the type of solid supports employed and the detection technology used to determine the presence of immunological complexes formed by antigen-antibody recognition and binding. A commercially available immunofiltration dotting assay procedure (MedMira Inc., Halifax, N.S.) was used to test for immunoreactivity of the peptide-carrier conjugates based on colloidal gold detection using a nitrocellulose membrane as a solid support and is described below.
The HCV positive/negative specimens used to evaluate the mosaic antigen composition were provided by Dr. Spencer Lee (Director of Virology/Immunology, Microbiology Division, Department of Pathology and Laboratory Medicine) of the Queen Elizabeth II Health Sciences Center (Halifax, Nova Scotia). All specimens were tested with the Abbott's HCV test using the Axsym system platform. The Riba-II (Chiron) immunoblot assay was used as a confirmation test.
The maleimide-activated carrier molecules (KLH, BSA and HSA) were purchased from Pierce (Rockford, IL) and conjugated with cysteine containing peptides using a peptide-carrier mass ratio of 0.5 except mentioned otherwise.
Typically, the conjugates were passively adsorbed at a concentration of 1 mg/ml (bicarbonate buffer, 50 mM, pH 9.6) by applying one microliter of peptide-carrier conjugate on the nitrocellulose membrane. The antigen dotted membrane was air-dried. Before the test, the membrane was primed with 3 drops of washing buffer (Tris/phosphate/sodium chloride, pH 9.6 containing 0.25% Tween®20). The tests were performed as follows.
One drop of specimen serum was added to the membrane and after complete absorption of the sample, the membrane was washed with 4 drops of washing buffer. Four drops of protein A/colloidal gold solution (concentration corresponding to an optical density of 2 at 520 nm) was added to the membrane and the membrane was washed with 3 more drops of washing solution. The results were recorded visually within 5 minutes after completion of the test.
The identification of major linear epitopes was carried out using selected peptides corresponding to various regions of the HCV polyprotein and panels of well-characterized HCV positive and negative human sera. Additionally, a comparison of different carrier components was made based on a sensitivity/specificity assessment of various peptide-carrier conjugates.
Peptides were individually conjugated to three different carriers (BSA, HSA and KLH) and adsorbed passively on a nitrocellulose membrane support. Tests were performed by immunofiltration dotting assay format using a,commercially available flow-through assay platform (MedMira Inc., Halifax, N.S.).

Row | Sequence | reactivity with HCV positive samples (peptide conjugated with BSA) | reactivity with HCV positive samples (peptide conjugated with HSA) | reactivity with HCV positive samples (peptide conjugated with KLH) | reactivity with positive HCV samples | reactivity with negative HCV samples
1 | ATRKTSERSQPRGRRQPI [MDL-5, HCV core region antigenic peptide] | reactive with most HCV positive samples | unreactive | reactive with most HCV positive samples |  | 
2 | GPRLGVRATRKTSERSQP [MDL-4, HCV core region antigenic peptide] | marginally reactive or unreactive | marginally reactive or unreactive | reactive with most HCV positive samples |  | 
3 | GQIVGGVYLLPRRGP [MDL-3, HCV core region antigenic peptide] |  |  |  | more consistent reactivity | No significant reactivity
4 | KTKRNTNRRPQDVKF [MDL-2, HCV core region antigenic peptide] |  |  |  | more consistent reactivity | No significant reactivity
5 | MSTNPKPQRKTKRNTNRR [MDL-1, HCV core region antigenic peptide] |  |  |  | more consistent reactivity | No significant reactivity
6 | PKARQPEGRAWAQPG [MDL-6] | reactive with most HCV positive samples | reactive with most HCV positive samples | poorly reactive |  | 
